Data reported in US20070275382A1, “Biomarkers for the Efficacy of Somatostatin Analogue Treatment” (priority 2003, published 2007).
Several values for one entry are separate records, joined by “and”; a condition that tells them apart may be missing. Equal values may be shown once. *1 amine or outer side, *2 acyl side, *3 side chain or, on linkers, in order; H or OH if unused. Where a SMILES comes first, the peptide text is derived from it. Side-chain parts run from the residue outwards. [ ]: non-standard residue; d: D form. The star is where a group is joined. Ethylenediamine = C(CN[*:2])N[*:1]; Hyp = O=C(O)[CH]1C[CH](O)CN1; Phg = N[CH](C(=O)O)c1ccccc1; CO = O=C([*:1])[*:2]; Bn = c1ccc(C*)cc1

Tested on: Pituitary gland
Assay: Microarray gene expression profiling (HG-U95A), pituitary
Assay type: in vivo, cynomolgus monkeys
Experimental: Origin of tissue and processing. Male and female cynomolgus monkeys received subcutaneously pasireotide (100 μg/animal/day) or the vehicle for 14 days. On day 15, all animals were sacrificed and tissues for RNA extraction were immediately snap-frozen and kept at −80° C. until processing.
RNA expression profiling was conducted by means of the HG-U95A gene expression probe array (Affymetrix; Santa Clara, Calif. USA), containing more than 12,600 probe sets interrogating primarily full-length human genes and also some control probe sets. The experiment was conducted according to the recommendations of the manufacturer. Briefly, total RNA was obtained by acid guanidinium thiocyanate-phenol-chloroform extraction (Trizol®, Invitrogen Life Technologies, San Diego, Calif. USA) from each frozen tissue section. The total RNA was then purified on an affinity resin (Rneasy®, Qiagen) and quantified. Double stranded cDNA was synthesized with a starting amount of approximately 5 μg full-length total RNA using the Superscript® Choice System (Invitrogen Life Technologies, Carlsbad, Calif. USA) in the presence of a T7-(dT)24 DNA oligonucleotide primer. Following synthesis, the cDNA was purified by phenol/chloroform/isoamyl alcohol extraction and ethanol precipitation. The purified cDNA was then transcribed in vitro using the BioArray® High Yield RNA Transcript Labeling Kit (ENZO, Farmingdale, N.Y. USA) in the presence of biotinylated ribonucleotides form biotin labelled cRNA. The labelled cRNA was then purified on an affinity resin (Rneasy®, Qiagen), quantified and fragmented. An amount of approximately 10 μg labelled cRNA was hybridized for 16 hours at 45° C. to an expression probe array. The array was then washed and stained twice with streptavidin-phycoerythrin (Molecular Probes,) using the GeneChip® Fluidics Workstation 400 (Affymetrix, Santa Clara, Calif. USA). The array was then scanned twice using a confocal laser scanner (GeneArray® Scanner, Agilent, Palo Alto, Calif. USA) resulting in one scanned image. This resulting “.dat-file” was processed using the MAS4 program (Affymetrix) into a “.cel-file”. The “.cel file” was captured and loaded into the Affymetrix GeneChip® Laboratory Information Management System (LIMS). The LIMS database is connected to a UNIX Sun Solaris server through a network filing system that allows for the average intensities for all probes cells (CEL file) to be downloaded into an Oracle database (NPGN). Raw data was converted to expression levels using a “target intensity” of 150. The data were evaluated for quality control and loaded in the GeneSpring® software 4.2.4 (Silicon Genetics, Calif. USA) for analysis.
On the human Affymetrix HGU95Av2 chip, probe sets for individual genes contain 20 oligonucleotide pairs, each composed of a “perfect match” 25-mer and a “mismatch” 25-mer differing from the “perfect” match oligonucleotide at a single base. After probe labelling, hybridization, and laser scanning, the expression level was estimated by averaging the differences in signal intensity measured by oligonucleotide pairs of a given probe (AvgDiff value). The fold changes and directions were calculated for selected genes, from the differences of the AvgDiff values between controls and treated.
To identify genes that were impacted by pasireotide, the dataset was initially filtered to exclude in a first wave of analysis, genes whose values were systematically in the lower expression ranges where the experimental noise is high (at least 80 in a number of experiments corresponding to the smallest number of replicas of any experimental point). In a second round of selection a threshold p-value of 0.05 (based on a t-test) identified differences between treated and control based on a two component error model (Global Error Model) and, whenever possible, with a stepdown correction for multi-hypothesis testing (Benjamini and Hochberg false discovery rate). […]

[1] = ↑ vs control, 100 μg/animal/day s.c., 14 days
[2] = ↓ vs control, 100 μg/animal/day s.c., 14 days

## NCCCCC1NC(=O)C(Cc2c[nH]c3ccccc23)NC(=O)C(c2ccccc2)NC(=O)C2CC(OC(=O)NCCN)CN2C(=O)C(Cc2ccccc2)NC(=O)C(Cc2ccc(OCc3ccccc3)cc2)NC1=O (stereo not drawn) [Pasireotide, cyclo[4-(NH2—C2H4—NH—CO—O)Pro-Phg-DTrp-Lys-Tyr(4-Bzl)-Phe]] (cyclo(F[Hyp]([CO-Ethylenediamine])[Phg]WKY(Bn)); configuration not given here)
0.1 mg/animal/14 day
  ATPase, H+/K+ exchanging, α polypeptide expression level, AvgDiff (range): 20
  ATPase, Na+/K+ transporting, α 2 (+) polypeptide expression level, AvgDiff (range): 184 (69 to 325)
  ATPase, Na+/K+ transporting, β 3 polypeptide expression level, AvgDiff (range): 610 (335 to 949)
  BCL2-antagonist of cell death expression level, AvgDiff (range): 69 (42 to 89)
  BCL2-associated athanogene expression level, AvgDiff (range): 318 (235 to 409)
  Bax gamma expression level, AvgDiff (range): 326 (221 to 448)
  Cdk inhibitor 2C (p18, inhibits CDK4) expression level, AvgDiff (range): 184 (140 to 229)
  Cdk inhibitor 2D (p19, inhibits CDK4) expression level, AvgDiff (range): 99 (83 to 118)
  Cell division cycle 25B expression level, AvgDiff (range): 162 (134 to 187)
  Core-binding factor, runt domain, α subunit 2; translocated to, 1; cyclin D-related expression level, AvgDiff (range): 491 (251 to 677)
  Cyclin D3 expression level, AvgDiff (range): 338 (202 to 446)
  Cyclin F expression level, AvgDiff (range): 74 (48 to 132)
  Dual specificity phosphatase 8 expression level, AvgDiff (range): 170 (67 to 238)
  Forkhead box O3A expression level, AvgDiff (range): 257 (186 to 324)
  GLUR 2, precursor expression level, AvgDiff (range): 59 (20 to 177)
  GR expression level, AvgDiff (range): 109 (51 to 215)
  IGF-2 expression level, AvgDiff (range): 70 (20 to 150)
  IGFBP, acid labile subunit expression level, AvgDiff (range): 83 (20 to 110)
  IP-4-phosphatase, type 1, isoform b expression level, AvgDiff (range): 177 (107 to 232)
  K+ channel, subfamily K, member 3 (TASK) expression level, AvgDiff (range): 26 (20 to 43)
  K+ voltage-gated channel, Shab-related subfamily, member 1 expression level, AvgDiff (range): 22 (20 to 31)
  MAPKKK5 expression level, AvgDiff (range): 278 (221 to 351)
  Neuroblastoma-amplified protein expression level, AvgDiff (range): 237 (201 to 258)
  PI transfer protein, β expression level, AvgDiff (range): 42 (34 to 50)
  PI-3-kinase, catalytic, α polypeptide expression level, AvgDiff (range): 21 (20 to 24)
  PI-3-kinase, catalytic, δ polypeptide expression level, AvgDiff (range): 34 (20 to 67)
  PKC inhibitor expression level, AvgDiff (range): 3,333 (2,339 to 3,878) and 3,332 (2,339 to 3,878)
  PLC, γ 1 (formerly subtype 148) expression level, AvgDiff (range): 40 (20 to 63)
  PP 1, regulatory (inhibitor) subunit 5 expression level, AvgDiff (range): 75 (60 to 90)
  PTP, receptor type, T expression level, AvgDiff (range): 101 (48 to 129)
  Phosphatase and tensin homolog (mutated in multiple advanced cancers 1) expression level, AvgDiff (range): 36 (20 to 63)
  Programmed cell death 6 expression level, AvgDiff (range): 635 (513 to 747)
  Putative Ca++ transporting ATPase expression level, AvgDiff (range): 101 (84 to 112)
  RAB 5C, member RAS oncogene family expression level, AvgDiff (range): 162 (109 to 212)
  Rab geranylgeranyltransferase, α subunit expression level, AvgDiff (range): 104 (70 to 172)
  Rab geranylgeranyltransferase, βsubunit expression level, AvgDiff (range): 284 (246 to 374)
  S-phase response (cyclin-related) expression level, AvgDiff (range): 129 (111 to 148)
  SHB adaptor protein (a Src homology 2 protein) expression level, AvgDiff (range): 38 (20 to 55)
  SSTR3 expression level, AvgDiff (range): 57 (20 to 90)
[1]
  ANP (atrial natriuretic peptide precursor B) transcript fold change: ↑ x2
  ATP(GTP)-binding protein transcript fold change: protein ↑ x1.5
  ATPase, Ca++ transporting cardiac muscle, slow twitch 2 transcript fold change: ↑ x1.5
  ATPase, Na+/K+ transporting, α 2(+) polypeptide transcript fold change: polypeptide ↑ x2.5
  ATPase, Na+/K+ transporting, β 3 polypeptide transcript fold change: polypeptide ↑ x2.5
  Adrenomedullin transcript fold change: Adrenomedullin ↑ x2.5
  BCL2-antagonist of cell death transcript fold change: cell death ↑ x2
  BCL2-associated athanogene transcript fold change: athanogene ↑ x2
  BCL2/adenovirus E1B 19 kD-interacting protein 3 transcript fold change: 3 ↑ x1.5
  Bax γ transcript fold change: Bax γ ↑ x1.5
  Brain cannabinoid receptor 1 transcript fold change: receptor 1 ↑ x2
  Butyrate response factor 2 (EGF-response factor 2) transcript fold change: factor 2) ↑ x3
  CC chemokines STCP-1 transcript fold change: STCP-1 ↑ x1.5
  Calcium/calmodulin-dependent protein kinase I transcript fold change: kinase I ↑ x2.5
  Cdki2C (p18, inhibits CDK4) transcript fold change: CDK4) ↑ x2
  Cdki2D (p19, inhibits CDK4) transcript fold change: CDK4) ↑ x1.5
  Cell division cycle 25B transcript fold change: ↑ x5
  Core-binding factor, runt domain, α subunit 2; translocated to, 1; cyclin D-related transcript fold change: cyclin D-related ↑ x3
  Cyclin D3 transcript fold change: Cyclin D3 ↑ x2.5
  Forkhead box H1 transcript fold change: Forkhead box H1↑ x2
  G protein-coupled receptor, family C, group 5, member B transcript fold change: group 5, member B ↑ x2
  G-protein coupled receptor 9 transcript fold change: receptor 9 ↑ x2.5
  GABA-B R 1, isoform a precursor transcript fold change: ↑ x1.5
  GFR bound protein 10 transcript fold change: ↑ x1.5
  GLUR 2, precursor transcript fold change: ↑ x1.5
  GTP-binding protein 11 transcript fold change: 11 ↑ x2.5
  Glucagon receptor transcript fold change: ↑ x7
  IFN stimulated gene transcript fold change: ↑ x3.5
  IFNγ-inducible protein 30 (IP30) transcript fold change: 30 (IP30) ↑ x1.5
  IGFBP, acid labile subunit transcript fold change: subunit ↑ x3.5
  IP3 receptor, type 1 transcript fold change: ↑ x1.5
  JAK 1 transcript fold change: JAK 1 ↑ x2
  MAPKKK5 transcript fold change: MAPKKK5 ↑ x2
  Neuroblastoma-amplified protein transcript fold change: ↑ x1.5
  PKC inhibitor transcript fold change: PKC inhibitor ↑ x2
  PP 1, regulatory (inhibitor) subunit 5 transcript fold change: ↑ x3.5
  PTP, receptor type, T transcript fold change: ↑ x2
  Programmed cell death 6 transcript fold change: death 6 ↑ x1.5
  Putative Ca++ transporting ATPase transcript fold change: ↑ x2
  RAB 5C, member RAS oncogene family transcript fold change: ↑ x3
  Rab geranyltransferase, β subunit transcript fold change: β subunit ↑ x2
  Receptor (calcitonin) activity modifying protein 2 precursor transcript fold change: x3.5
  Receptor tyrosine kinase-like orphan receptor 2 transcript fold change: receptor 2 ↑ x2
  Regulator of G-protein signalling 9 transcript fold change: ↑ x2
  S-phase response (cyclin-related) transcript fold change: (cyclin-related) ↑ x2
  SSTR3 transcript fold change: SSTR3 ↑ x3
  Thyroid transcription factor 1 transcript fold change: factor 1 ↑ x2.5
  VEGF B transcript fold change: VEGF B ↑ x1.5
[2]
  1-PI-4-phosphate 5-kinase isoform C transcript fold change: kinase isoform C ↓ x1.5
  ATPase, H+/K+ exchanging, α polypeptide transcript fold change: polypeptide ↓ x5
  Arg PTK-binding protein transcript fold change: protein ↓ x2.5
  CD36 antigen transcript fold change: CD36 antigen ↓ x2
  Catenin (cadherin-associated protein), α 1 (102 kD) transcript fold change: α 1 (102 kD) ↓ x1.5
  Cholecystokinin receptor transcript fold change: receptor ↓ x4.5
  Cholinergic receptor, muscarinic 3 transcript fold change: muscarinic 3 ↓ x3
  Cholinergic receptor, nicotinic, β polypeptide 4 transcript fold change: 4 ↓ x2
  Cyclin F transcript fold change: Cyclin F ↓ x2
  Dual specificity phosphatase 8 transcript fold change: phosphatase 8 ↓ x3
  EGFRBP 2 transcript fold change: EGFRBP 2 ↓ x1.5
  FGFR 2 transcript fold change: FGFR 2 ↓ x2
  Fms-related tyrosine kinase 1 (VEGF/vascular permeability factor receptor) transcript fold change: receptor) ↓ x1.5
  Forkhead box O3A transcript fold change: ↓ x1.5
  G-protein coupled receptor 49 transcript fold change: receptor 49 ↓ x2
  GTP-binding protein (G protein), q polypeptide transcript fold change: ↓ x2.5
  GTP-binding protein like-1 transcript fold change: like-1 ↓ x3
  Gastrin receptor transcript fold change: Gastrin receptor ↓ x2
  IFNR2 (α, β and ω) transcript fold change: ↓ x2.5
  IGF-2 transcript fold change: IGF-2 ↓ x1.5
  IP-4-phosphatase, type 1, isoform b transcript fold change: type 1, isoform b ↓ x2
  K+ channel, subfamily K, member 3 (TASK) transcript fold change: ↓ x4
  K+ voltage-gated channel, Shab-related subfamily, member 1 transcript fold change: ↓ x2
  PDGFβ transcript fold change: PDGFβ ↓ x2
  PI transfer protein, β transcript fold change: ↓ x2.5
  PI-3-kinase, catalytic, α polypeptide transcript fold change: α polypeptide ↓ x3
  PI-3-kinase, catalytic, δ polypeptide transcript fold change: ↓ x2
  PLCγ 1 transcript fold change: PLCγ 1 ↓ x1.5
  Phosphatase and tensin homolog (mutated in multiple advanced cancers 1) transcript fold change: ↓ x3.5
  Rab3 GTPase-activating protein, non catalytic subunit transcript fold change: catalytic subunit ↓ x2
  Rab geranylgeranyl transferase, α subunit transcript fold change: ↓ x1.5
  SHB adaptor protein (a Src homology 2 protein) transcript fold change: ↓ x2.5
  STAT 1, 91kδ transcript fold change: STAT 1, 91kδ ↓ x2
  Soluble adenylyl cyclase transcript fold change: cyclase ↓ x2
  TNFR subfamily, member 14; herpesvirus entry mediator transcript fold change: entry mediator ↓ x2.5
  TNFR-associated factor 2 transcript fold change: factor 2 ↓ x4
  Thrombospondin-p50 transcript fold change: ↓ x2
